Among the data in ChEMBL document CHEMBL5291721, “A preclinical secondary pharmacology resource illuminates target-adverse drug reaction associations of marketed drugs” (Nat Commun, 2023) are AC50 values, retold here.

What is called AC50 is the concentration at which the activity in the assay is half-maximal.

Experiment [1] deals with D(3) dopamine receptor (Homo sapiens, UniProt P35462).
In experiment [2] the target is T1, Type-1 angiotensin II receptor (Homo sapiens, UniProt P30556).
T1 sequence (P30556 whole entry): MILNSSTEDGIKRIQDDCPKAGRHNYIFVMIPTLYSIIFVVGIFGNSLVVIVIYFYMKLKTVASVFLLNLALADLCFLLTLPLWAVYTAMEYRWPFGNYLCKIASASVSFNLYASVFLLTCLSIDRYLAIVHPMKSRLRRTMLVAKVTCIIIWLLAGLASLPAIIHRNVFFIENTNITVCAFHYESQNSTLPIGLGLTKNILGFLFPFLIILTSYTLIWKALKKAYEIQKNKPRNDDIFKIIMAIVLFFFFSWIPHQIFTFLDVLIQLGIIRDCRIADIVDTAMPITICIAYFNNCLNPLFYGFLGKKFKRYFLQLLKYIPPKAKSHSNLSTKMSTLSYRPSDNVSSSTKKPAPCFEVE

Experiment [3] deals with 5-hydroxytryptamine receptor 2A (Homo sapiens, UniProt P28223). Type of experiment: functional, cell-based.
Experiment [4] deals with T2, Cholecystokinin receptor type A (Homo sapiens, UniProt P32238).
T2 sequence (P32238 whole entry): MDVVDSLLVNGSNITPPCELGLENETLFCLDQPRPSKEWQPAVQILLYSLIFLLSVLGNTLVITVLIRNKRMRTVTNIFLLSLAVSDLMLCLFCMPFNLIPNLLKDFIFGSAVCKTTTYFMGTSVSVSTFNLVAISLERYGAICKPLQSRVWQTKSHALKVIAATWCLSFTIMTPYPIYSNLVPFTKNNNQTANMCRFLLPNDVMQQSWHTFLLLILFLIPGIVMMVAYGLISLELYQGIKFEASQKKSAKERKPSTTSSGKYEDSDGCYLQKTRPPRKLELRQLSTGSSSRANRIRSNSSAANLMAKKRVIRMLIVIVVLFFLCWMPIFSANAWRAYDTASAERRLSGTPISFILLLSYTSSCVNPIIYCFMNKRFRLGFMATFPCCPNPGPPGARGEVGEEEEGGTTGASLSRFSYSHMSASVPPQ

The target in experiment [5] is T3, Estrogen receptor (Homo sapiens, UniProt P03372).
T3 sequence (P03372 whole entry): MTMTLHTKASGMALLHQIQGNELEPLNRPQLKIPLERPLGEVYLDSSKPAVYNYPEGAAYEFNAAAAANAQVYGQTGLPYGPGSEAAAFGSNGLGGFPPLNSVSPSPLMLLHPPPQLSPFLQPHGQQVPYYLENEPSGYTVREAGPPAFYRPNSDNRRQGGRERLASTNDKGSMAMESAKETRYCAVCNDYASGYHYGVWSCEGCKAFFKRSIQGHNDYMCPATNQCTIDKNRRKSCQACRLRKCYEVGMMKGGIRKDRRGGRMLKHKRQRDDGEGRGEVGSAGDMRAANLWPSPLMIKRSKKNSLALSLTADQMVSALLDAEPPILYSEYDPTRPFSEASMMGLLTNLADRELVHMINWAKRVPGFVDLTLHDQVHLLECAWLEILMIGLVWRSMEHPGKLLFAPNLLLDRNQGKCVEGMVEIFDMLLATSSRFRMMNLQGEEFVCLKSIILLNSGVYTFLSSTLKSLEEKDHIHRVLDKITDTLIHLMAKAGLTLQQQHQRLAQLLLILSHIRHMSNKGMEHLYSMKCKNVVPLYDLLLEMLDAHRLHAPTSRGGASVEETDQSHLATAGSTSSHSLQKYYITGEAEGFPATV

Experiment [6] deals with Voltage-dependent L-type calcium channel subunit alpha-1C (Rattus norvegicus, UniProt P22002). In kind it is functional.
Experiment [7] deals with Cannabinoid receptor 1 (Homo sapiens, UniProt P21554).
Further: assay procedure not described here.

D(3) dopamine receptor, sequence (P35462 whole entry): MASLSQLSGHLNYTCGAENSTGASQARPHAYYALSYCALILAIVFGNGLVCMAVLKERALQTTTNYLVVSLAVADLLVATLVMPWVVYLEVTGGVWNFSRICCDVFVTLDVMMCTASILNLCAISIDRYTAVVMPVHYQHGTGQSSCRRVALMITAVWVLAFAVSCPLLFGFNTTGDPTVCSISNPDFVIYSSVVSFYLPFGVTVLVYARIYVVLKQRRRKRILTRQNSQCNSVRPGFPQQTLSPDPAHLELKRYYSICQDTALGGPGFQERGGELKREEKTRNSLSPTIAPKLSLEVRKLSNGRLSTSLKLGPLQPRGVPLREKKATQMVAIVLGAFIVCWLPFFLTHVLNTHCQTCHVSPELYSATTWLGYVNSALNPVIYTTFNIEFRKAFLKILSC
Voltage-dependent L-type calcium channel subunit alpha-1C, sequence (P22002 whole entry): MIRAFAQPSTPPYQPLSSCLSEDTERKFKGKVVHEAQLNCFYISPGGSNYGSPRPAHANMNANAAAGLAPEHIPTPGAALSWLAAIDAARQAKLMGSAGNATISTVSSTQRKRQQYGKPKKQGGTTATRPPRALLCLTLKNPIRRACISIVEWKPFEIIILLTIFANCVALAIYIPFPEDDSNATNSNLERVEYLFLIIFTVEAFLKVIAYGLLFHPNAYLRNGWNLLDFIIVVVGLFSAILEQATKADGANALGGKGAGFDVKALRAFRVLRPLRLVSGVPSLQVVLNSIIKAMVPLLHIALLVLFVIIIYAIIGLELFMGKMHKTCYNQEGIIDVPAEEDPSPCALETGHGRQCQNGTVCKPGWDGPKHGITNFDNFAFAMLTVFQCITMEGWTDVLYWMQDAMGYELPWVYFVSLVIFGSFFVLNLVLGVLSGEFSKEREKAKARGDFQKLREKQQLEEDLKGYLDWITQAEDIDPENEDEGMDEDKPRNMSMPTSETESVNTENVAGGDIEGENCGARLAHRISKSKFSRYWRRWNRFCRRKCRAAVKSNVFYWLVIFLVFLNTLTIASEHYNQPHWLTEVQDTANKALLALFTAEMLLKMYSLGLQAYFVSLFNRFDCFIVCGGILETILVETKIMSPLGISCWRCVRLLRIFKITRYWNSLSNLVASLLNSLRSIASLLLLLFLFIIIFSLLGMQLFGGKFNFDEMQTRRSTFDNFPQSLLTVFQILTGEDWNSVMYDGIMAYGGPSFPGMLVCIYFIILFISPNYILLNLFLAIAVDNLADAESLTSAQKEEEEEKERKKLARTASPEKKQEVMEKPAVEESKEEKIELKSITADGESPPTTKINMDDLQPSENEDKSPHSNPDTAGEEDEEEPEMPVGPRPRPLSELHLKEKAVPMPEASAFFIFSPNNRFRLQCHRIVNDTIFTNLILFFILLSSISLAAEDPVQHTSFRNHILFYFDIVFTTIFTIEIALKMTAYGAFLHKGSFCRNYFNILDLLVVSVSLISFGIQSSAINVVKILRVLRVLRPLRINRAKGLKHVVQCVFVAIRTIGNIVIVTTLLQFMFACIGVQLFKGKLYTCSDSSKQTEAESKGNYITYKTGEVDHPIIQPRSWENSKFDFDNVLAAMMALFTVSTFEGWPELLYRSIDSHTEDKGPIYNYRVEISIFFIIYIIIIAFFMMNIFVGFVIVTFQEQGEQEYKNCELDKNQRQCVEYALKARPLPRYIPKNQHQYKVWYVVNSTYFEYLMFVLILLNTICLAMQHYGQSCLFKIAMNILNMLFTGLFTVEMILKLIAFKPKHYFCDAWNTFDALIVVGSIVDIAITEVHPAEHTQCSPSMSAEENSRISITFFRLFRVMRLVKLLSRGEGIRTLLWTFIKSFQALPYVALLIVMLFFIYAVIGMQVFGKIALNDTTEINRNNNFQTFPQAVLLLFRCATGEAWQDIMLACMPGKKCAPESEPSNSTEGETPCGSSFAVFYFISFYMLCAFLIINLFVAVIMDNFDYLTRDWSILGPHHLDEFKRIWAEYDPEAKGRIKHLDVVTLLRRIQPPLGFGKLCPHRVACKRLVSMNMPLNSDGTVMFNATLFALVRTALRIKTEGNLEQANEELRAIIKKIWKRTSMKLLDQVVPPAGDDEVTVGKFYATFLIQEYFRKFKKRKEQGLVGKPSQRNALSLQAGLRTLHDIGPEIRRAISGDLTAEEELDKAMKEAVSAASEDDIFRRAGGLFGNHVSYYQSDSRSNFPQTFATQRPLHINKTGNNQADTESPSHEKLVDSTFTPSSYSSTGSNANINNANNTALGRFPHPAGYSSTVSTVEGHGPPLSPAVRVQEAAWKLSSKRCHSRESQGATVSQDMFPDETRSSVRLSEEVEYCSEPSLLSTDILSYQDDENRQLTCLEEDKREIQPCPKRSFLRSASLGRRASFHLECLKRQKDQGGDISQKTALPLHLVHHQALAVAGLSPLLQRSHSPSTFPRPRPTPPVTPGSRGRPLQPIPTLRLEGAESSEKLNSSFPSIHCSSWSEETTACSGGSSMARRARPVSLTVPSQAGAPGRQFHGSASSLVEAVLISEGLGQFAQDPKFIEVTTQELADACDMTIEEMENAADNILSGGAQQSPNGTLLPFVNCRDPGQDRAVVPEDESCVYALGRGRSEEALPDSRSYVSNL
Cannabinoid receptor 1, sequence (P21554 whole entry): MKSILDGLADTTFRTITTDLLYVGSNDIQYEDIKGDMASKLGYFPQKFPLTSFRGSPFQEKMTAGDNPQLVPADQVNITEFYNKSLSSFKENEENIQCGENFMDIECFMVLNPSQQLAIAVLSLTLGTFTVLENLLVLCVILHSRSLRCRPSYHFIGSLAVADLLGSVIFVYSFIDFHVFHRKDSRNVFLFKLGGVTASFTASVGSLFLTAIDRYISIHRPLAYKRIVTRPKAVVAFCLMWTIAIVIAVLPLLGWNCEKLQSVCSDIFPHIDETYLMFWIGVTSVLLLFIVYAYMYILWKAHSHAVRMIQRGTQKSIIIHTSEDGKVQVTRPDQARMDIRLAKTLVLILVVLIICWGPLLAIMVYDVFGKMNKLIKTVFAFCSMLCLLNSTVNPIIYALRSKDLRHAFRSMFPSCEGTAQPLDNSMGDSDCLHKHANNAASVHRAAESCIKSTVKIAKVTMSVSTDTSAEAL
5-hydroxytryptamine receptor 2A, sequence (P28223 whole entry): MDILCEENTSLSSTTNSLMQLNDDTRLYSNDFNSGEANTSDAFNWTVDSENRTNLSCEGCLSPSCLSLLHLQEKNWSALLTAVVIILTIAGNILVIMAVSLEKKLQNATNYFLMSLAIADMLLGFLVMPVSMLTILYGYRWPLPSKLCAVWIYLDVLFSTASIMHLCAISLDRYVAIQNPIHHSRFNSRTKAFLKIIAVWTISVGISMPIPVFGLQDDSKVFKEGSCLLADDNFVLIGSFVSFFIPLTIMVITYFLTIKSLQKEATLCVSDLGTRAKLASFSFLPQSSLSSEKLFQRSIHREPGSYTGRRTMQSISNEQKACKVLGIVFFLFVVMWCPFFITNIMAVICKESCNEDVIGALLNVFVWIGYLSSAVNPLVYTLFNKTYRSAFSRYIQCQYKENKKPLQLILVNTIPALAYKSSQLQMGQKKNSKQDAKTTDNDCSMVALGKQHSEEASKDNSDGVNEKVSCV

In the case of `CCOc1cc([C@@H](CS(C)(=O)=O)N2C(=O)c3cccc(NC(C)=O)c3C2=O)ccc1OC`, the AC50 in experiment [1], in experiment [2], in experiment [3] and in experiment [4] was greater than 30 µM throughout.
For the compound `CC(=O)Nc1ccc(CC(=O)O)cc1` [ACTARIT], the AC50 in experiment [1], in experiment [2], in experiment [5], in experiment [3], in experiment [6] and in experiment [4] was greater than 30 µM in each case.
For `CC(C(=O)O)c1ccc2oc(-c3ccc(Cl)cc3)nc2c1` (stereo unspecified) [BENOXAPROFEN], the half-maximal activity concentration (AC50) in experiment [1], in experiment [2], in experiment [5], in experiment [6] and in experiment [4] was greater than 30 µM in each case.
For the compound `CC1(C)S[C@@H]2[C@H](NC(=O)C(C(=O)O)c3ccccc3)C(=O)N2[C@H]1C(=O)O` (stereo partly specified) [CARBENICILLIN], the concentration at half-maximal activity (AC50) in experiment [1], in experiment [2], in experiment [3] and in experiment [4] was greater than 30 µM throughout.
As to `Cc1nnc(SCC2=C(C(=O)O)N3C(=O)[C@@H](NC(=O)Cn4cnnn4)[C@H]3SC2)s1` [CEFAZOLIN], the AC50 in experiment [1] was greater than 300 µM; in experiment [2], greater than 300 µM; in experiment [5] it was greater than 30 µM; in experiment [3] it was greater than 300 µM; in experiment [4] it was greater than 300 µM.
For the compound `CC=CC1=C(C(=O)O)N2C(=O)[C@@H](NC(=O)[C@H](N)c3ccc(O)cc3)[C@H]2SC1` [CEFPROZIL], the AC50 in experiment [1] was 26 µM; in experiment [7], greater than 30 µM; in experiment [2], greater than 30 µM; in experiment [5], greater than 30 µM; in experiment [3], greater than 30 µM; in experiment [6], greater than 30 µM. The compound further displayed an AC50 in experiment [4] greater than 30 µM.
Take `CC(C)(O/N=C(\C(=O)N[C@@H]1C(=O)N2C(C(=O)[O-])=C(C[n+]3ccccc3)CS[C@H]12)c1csc(N)n1)C(=O)O` [CEFTAZIDIME]: the concentration at half-maximal activity (AC50) in experiment [1] was greater than 300 µM; in experiment [2] it was greater than 300 µM; in experiment [5] it was greater than 30 µM; in experiment [3], greater than 300 µM; in experiment [4] it was greater than 300 µM.
In the case of `CC(C)NC(=N)NC(=N)Nc1ccc(Cl)c(Cl)c1` [CHLORPROGUANIL], the AC50 in experiment [1] and in experiment [3] was greater than 30 µM each time.
For `C[N+](C)(C)CCOP(=O)(O)OP(=O)([O-])OC[C@H]1O[C@@H](n2ccc(N)nc2=O)[C@H](O)[C@@H]1O` [CITICOLINE], the AC50 in experiment [1] and in experiment [3] was greater than 30 µM each time.
For `Clc1ccc(Cn2c(CN3CCCC3)nc3ccccc32)cc1` [CLEMIZOLE], the AC50 in experiment [1], in experiment [2], in experiment [3] and in experiment [4] was greater than 30 µM in each case.
Turning to `CCC(=O)O[C@]1(C(=O)CCl)[C@@H](C)C[C@H]2[C@@H]3CCC4=CC(=O)C=C[C@]4(C)[C@@]3(F)[C@@H](O)C[C@@]21C` [CLOBETASOL PROPIONATE], the AC50 in experiment [1], in experiment [2] and in experiment [4] was greater than 30 µM in each case.
With `CC(C)Cc1ccc([C@H](C)C(=O)O)cc1` [DEXIBUPROFEN], the AC50 in experiment [1], in experiment [2] and in experiment [4] was greater than 30 µM each time.
Turning to `CNC[C@H](O)c1ccc(O)c(O)c1` [EPINEPHRINE], the values for the half-maximal activity concentration (AC50) in experiment [1], in experiment [2] and in experiment [4] were 8.4 µM, greater than 30 µM and greater than 30 µM, respectively.
`Cc1onc(-c2c(F)cccc2Cl)c1C(=O)N[C@@H]1C(=O)N2[C@@H]1SC(C)(C)[C@@H]2C(=O)O` [FLOXACILLIN]: the AC50 in experiment [1], in experiment [2], in experiment [3] and in experiment [4] was greater than 30 µM throughout.
In the case of `COc1ccccc1OC1(C)OC(=O)c2ccccc2O1` (stereo unspecified) [GUAIMESAL], the AC50 in experiment [2], in experiment [5] and in experiment [4] was greater than 30 µM throughout.
For `CCCCCCCN(CC)CCCC(O)c1ccc(NS(C)(=O)=O)cc1` (stereo unspecified) [IBUTILIDE], the AC50 in experiment [1] was 4.3 µM; in experiment [7] it was greater than 30 µM; in experiment [2] it was greater than 30 µM; in experiment [3], greater than 30 µM; in experiment [6] it was greater than 30 µM; in experiment [4], greater than 30 µM.
As for `COc1cc(C(C)=O)ccc1OCCCN1CCC(c2noc3cc(F)ccc23)CC1` [ILOPERIDONE], the AC50 in experiment [1] was 0.0373 µM; in experiment [2], greater than 30 µM; in experiment [4], greater than 30 µM.
As for `CNC(=C[N+](=O)[O-])NCCSCc1csc(CN(C)C)n1` [NIZATIDINE], the AC50 in experiment [1] is greater than 30 µM; in experiment [7], greater than 10 µM; in experiment [2], greater than 10 µM; in experiment [6], greater than 10 µM; in experiment [4] it was greater than 10 µM.
Consider `CN1Cc2c(N)cccc2C(c2ccccc2)C1` (stereo unspecified) [NOMIFENSINE], for which the AC50 in experiment [1], in experiment [2], in experiment [3] and in experiment [4] was greater than 30 µM each time.
For the compound `CCCc1cc(=O)[nH]c(=S)[nH]1` [PROPYLTHIOURACIL], the AC50 is greater than 30 µM in experiment [1]; greater than 10 µM in experiment [7]; greater than 10 µM in experiment [2]; greater than 10 µM in experiment [5]; greater than 10 µM in experiment [6]; greater than 10 µM in experiment [4].
On to `Cn1cc(C(=O)[C@@H]2CCc3nc[nH]c3C2)c2ccccc21` [RAMOSETRON], for which the half-maximal activity concentration (AC50) in experiment [1], in experiment [2], in experiment [5], in experiment [3], in experiment [6] and in experiment [4] was greater than 30 µM in each case.
`S=P(N1CC1)(N1CC1)N1CC1` [THIOTEPA]: the concentration at half-maximal activity (AC50) is 9.9 µM in experiment [1], greater than 30 µM in experiment [2] and greater than 30 µM in experiment [4].
For the compound `CC(C)C[C@H](NC(=O)[C@@H](O)[C@H](N)Cc1ccccc1)C(=O)O` [UBENIMEX], the AC50 in experiment [1], in experiment [5] and in experiment [6] was greater than 30 µM throughout.
As for `COc1cc(C(=O)NS(=O)(=O)c2ccccc2C)ccc1Cc1cn(C)c2ccc(NC(=O)OC3CCCC3)cc12` [ZAFIRLUKAST], the half-maximal activity concentration (AC50) in experiment [7] was greater than 10 µM; in experiment [2], greater than 10 µM; in experiment [5], greater than 30 µM; in experiment [6], greater than 10 µM; in experiment [4] it was greater than 10 µM.
